Literature values as cited in patent US11058666B2, “Oral administration of melanin for protection against radiation” (priority 2011, dated 2021).

Conditions: after 9 Gy delivered at 1 Gy/min, published data

In the case of `NCCCNCCSP(=O)(O)O` [amifostine], the survival is listed as 60%.
